Reference: US20100197601A1, “USE OF A FIBRINOGEN RECEPTOR ANTAGONIST AND/OR FOLLICULAR GONADOTROPIN RELEASING PEPTIDE AS A THERAPEUTIC AGENT IN THE TREATMENT OF STREPTOCOCCUS PNEUMONIA INFECTION” (priority 2007, published 2010)
Primed or numbered codes have the meaning given here. Where no end group is shown, it is not given here. [ ]: non-standard residue; d: D form. Pen′ = not defined here

Tests used:
HIV-1IIIB = test: HIV-1 antiviral assay in CEM-SS cells
HCMV strain AD169 = test: HCMV plaque formation assay in MRC-5 cells; type: cell-based; conditions: for inhibition of HCMV plaque formation as compared to the virus control experiment: 10 micrograms per ml, 7-10 days
[1] = test system: murine spleen cells restimulated with Ovalbumin; test: Th1/Th2 cytokine profiling assay; type: cell-based, Balb/c mice; conditions: 10 micrograms per ml
HUVEC = test: Endothelial tube formation assay; type: cell-based, human; conditions: 10 micrograms per ml, 20 hours
Procedure: The endothelial tube formation assay is based on the ability of endothelial cells to form three-dimensional capillary-like tubular structures when cultured on a gel of basement membrane extract. The endothelial tube formation assay represents a powerful model for studying inhibition and induction of angiogenesis. Pre-labeled HUVEC with Calcein AM were seeded in a 96-well culture plate coated with extracellular metrix (Chemicon international Cat. ECM625) and treated with test peptides—10 micrograms per ml—in full growth medium. Positive control wes vehicle only. The endothelial cells were allowed to form tubes foe 20 hours and were then examined under an inverted fluorescent microscope. Duplicate wells for each treatment were photographed and quantitatively analyzed for an average tubule length using image analysis software ImageProPlus. Raw data were expressed as average tubule lengths in pixels±standard deviation. Statistic p values were computed using the Student's t-test.

[2] = test system: hepatitis B virus (HBV) ayw strain; test: HBV experimental assay system, HepG2-2.2.15; type: cell-based; conditions: 10 micrograms per ml, six days, HBV DNA by TaqMan PCR, combination 0.95 mole peptide 1 and 1.05 mole peptide 2
Streptococcus pneumoniae = Streptococcus pneumoniae assay; type: cell-based; conditions: 10 micrograms per ml; 5x10^5 CFU/mL; read visually; combination for instance 0.95 mole peptide 1 and 1.05 mole peptide 2
[3] = test system: Primary Human endothelial cells (HUVEC); test: Endothelial cell migration assay; type: cell-based; conditions: 10 micrograms per ml, 22 hours, combination peptide 1:peptide 2 1.10 mole:0.90 mole
[4] = combination 0.95 mole peptide 1 and 1.05 mole peptide 2

Compound	antiviral activity of positive control compounds (HIV-1) (HIV-1IIIB)	production of TNF-alpha, induced by ([1]; 72 hours)	change of the production of IL-2 [1, 4]	inhibition of HCMV plaque formation as compared to the virus control experiment (HCMV strain AD169)	inhibition of the growth of Streptococcus pneumoniae (Streptococcus pneumoniae)	inhibition of the migration of human endothelial cells [3]	further results
Cc1cn([C@H]2C[C@H](N=[N+]=[N-])[C@@H](CO)O2)c(=O)[nH]c1=O [AZT]	expected levels of antiviral activity						
Nc1nc(O)c2ncn(COC(CO)CO)c2n1 [Ganciclovir, reference compound]							antiviral activity of positive control compound (HCMV) (HCMV strain AD169; positive control): expected levels of antiviral activity
CC(C)(C)NC(=O)[C@@H]1CN(Cc2cccnc2)CCN1C[C@@H](O)C[C@@H](Cc1ccccc1)C(=O)N[C@H]1c2ccccc2C[C@H]1O [indinavir]	expected levels of antiviral activity						
Ac-Pen-Arg-Gly-Asp-Cys-OH (Ac-[Pen′]RGDC-OH; reading uncertain; also: printed as Ac-Pen-Arg-Gly-Asp-Cys-OH) [Peptide 1]		30.0%	did not significantly change	did not inhibit	100%	4%	production of IL-4, decreased by ([1]; 72 hours): 44%; production of IL-5, decreased by ([1]; 72 hours): 26.5%; change of the production of IFN-y [1, 4]: did not significantly change; inhibition of the tube formation of human endothelial cells (HUVEC; combination peptide 1:peptide 2 1.10 mole:0.90 mole): 26%; inhibition of HBV replication as compared to the virus control infection [2]: no effect
Thr-Asp-Thr-Ser-His-His-Asp-Gln-Asp-His-Pro-Thr-Phe-Asn-OH (TDTSHHDQDHPTFN-OH) [Peptide 2]		34%	did not significantly change	did not inhibit	100%	8%	production of IFN-y, induced by ([1]; 72 hours): 23.4%; production of IL-4, induced by ([1]; 72 hours): 29%; change of the production of IL-5 [1, 4]: did not significantly change; increase of the tube formation of endothelial cells (HUVEC): 11%
